We go through 13 compounds from patent US4673747A, “Aminoalkylphenoxy derivatives” (Ikeda Mohando Co., Ltd., priority 1984, dated 1987).

One may read the ED50 as the midpoint of the dose-response relation. The LD50 is the dose expected to kill half of the subjects tested.

Data set [1] relates to Gastric acid secretion induced by histamine. The data set can be described thus: Inhibitory effect of intraduodenally administered compounds on gastric acid secretion induced by histamine in rat. The data set is classed as in vivo, rat (male Wistar). The settings on record: for ED50: 0.5 h, read-out: Median effective dose (ED50), Gastric Acid Secretion; for Efficacy Ratio relative to Cimetidine (Cimetidine = 1): from ED50; for ED50 value: times as effective as Cimetidine (activity ratio): text discussing Table 2.

Data set [2] shares this test system. As to the kind of experiment: Inhibition effect on gastric acid secretion induced by histamine in pylorus ligated rat (subcutaneous). The settings on record: read-out: Secretion of Gastric Acid in Rat, Inhibition Rate (%); for inhibition in vivo at 0.2 mg/kg: 0.2 mg/kg SC. In kind it is in vivo, rat (male Wistar). As for the experimental part: A male Wistar rat having a body weight of about 160 g and which had not fed for 24 hours was anesthetized by an intraperitonea dose of 1.2 g/kg of uretane. After ligating of pylorus and esophagus, the gaster anterior was incised and fitted with a double polyethylene cannula. The wall of the stomach was rinsed with 5 ml of saline at 30 minute intervals, and the quantities of gastric acid contained in each rinsing solution were measured by titration.
The basal acid secretion was initially measured three times, and then 0.2 mg/kg or 0.5 mg/kg of each of the compounds of this invention was administered subcutaneously and 3 mg/kg of histamine was administered subcutaneously after the lapse of an additional 30 minutes.
The quantity of gastric acid secreated after the operation was measured continuously for 3 hours. Within that measurement interval, three time points at which the increase in acid secretion reached a maximum level were selected, and the average quantity of gastric acid secreted at those time points was taken as the increase in acid secretion, which was compared with the increase in acid secretion of the control group to calculate the percent inhibition for secretion of gastric acid. [formula] (The result was shown as the average value of five runs.)

Data set [3] can be described thus: Acute toxicity test on mice dosed orally. Details: species or system mouse (male ddy). The note with it: mouse, in vivo, po, P.O., 14 days observation, read-out: Median lethal dose (LD50). As for the experimental part:
Male ddy mice each having a body weight of about 22 g and which had not eaten for 8 hours were orally dosed with the test samples, and the general symptoms and fatalities were observed from the time immediately following the administration to 14 days after the administration.
The median lethal dose (LD50) was calculated in accordance with the Litchfield and Wilcoxon Method.

In a further data set the target is T1, Histamine H2-Receptor (Cavia porcellus, UniProt P47747).
T1 construct: from tissue; host or cells: isolated atrium of male Hartley guinea pig
Details: species or system guinea pig (male Hartley). The settings on record: isolated guinea pig atrium; negative logarithm of molar concentration; heart beats, histamine dose-response; read-out: Antagonistic Action against Histamine H2-Receptor (pA2) Determined by Using Atrium isolated from Guinea Pig (converted). As for the experimental part: A male Hartley guinea pig having a body weight of about 400 g was killed by cervical dislocation, and the artrium thereof was isolated and was suspended in an organ bath containing 50 ml of a modified Ringer solution and subjected to a tension of 1 g. The number of heart beats under such condition was recorded using a polygraph.
Initially, from 1×10^-7 mol to 3×10^-4 mol of histamine was allowed to act accumulatively to depict the curve of the dosage-reaction relationship. Likewise, the curve of the dosage of histamine-reaction relationship was depicted in the presence of 5×10^-7 mol to 1×10^-6 mol of the test sample which was injected 3 minutes before. The negative logarithm (pA2) of the molar concentration of the test sample required for moving the curve obtained by single administration of histamine parallel to the right side by a two-times concentration was calculated.

Where [4] appears, read: intraduodenal, 30 minutes before SC histamine, rat.
Where [5] appears, read: 0.5 mg/kg SC, histamine 3 mg/kg SC, average of five runs, * p<0.05, ** p<0.01 vs control group.
Setting [6] is: histamine 3 mg/kg SC, average of five runs, * p<0.05, ** p<0.01 vs control group.

Where two headings read alike, the source gives them in different places. Bounds are passed on as bounds.

T1 sequence (P47747 whole entry): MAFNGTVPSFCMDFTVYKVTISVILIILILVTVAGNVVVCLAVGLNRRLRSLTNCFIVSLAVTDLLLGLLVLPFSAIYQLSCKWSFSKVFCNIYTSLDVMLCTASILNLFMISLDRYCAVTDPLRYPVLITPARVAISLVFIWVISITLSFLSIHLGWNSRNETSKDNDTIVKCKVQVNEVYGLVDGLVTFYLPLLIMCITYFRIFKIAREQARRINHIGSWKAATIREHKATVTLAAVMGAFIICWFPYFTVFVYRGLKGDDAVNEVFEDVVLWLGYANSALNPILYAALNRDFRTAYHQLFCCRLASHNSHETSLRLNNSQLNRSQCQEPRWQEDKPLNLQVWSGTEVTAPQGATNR

As to `CNc1n[nH]c(=O)nc1NC/C=C\COc1cccc(CN2CCCCC2)c1` [Ex. 10, 6-methylamino-5-[4-<3-(1-piperidinomethyl)phenoxy>-cis-2-butenylamino]-1,2,4-triazin-3-one], the ED50 in data set [1] (setting [4]) came to 8 mg/kg. In addition, the “Efficacy Ratio relative to Cimetidine (Cimetidine = 1)” value (from here on “Efficacy Ratio relative to Cimetidine”) in data set [1] (intraduodenal, rat) turned out to be 0.9. In addition, the inhibition in vivo at 0.5 mg/kg in data set [2] (setting [5]) worked out at 103%. In addition, the LD50 at 336 h in data set [3] was greater than 1500 mg/kg. In addition, the Kb at Histamine H2-Receptor is 219 nM.

Take `Nc1n[nH]c(=O)nc1NC/C=C\COc1cccc(CN2CCCCC2)c1` [Ex. 9, 6-amino-5-[4-<3-(1-piperidinomethyl)phenoxy>-cis-2-butenylamino]-1,2,4-triazin-3-one]: the inhibition in vivo at 0.5 mg/kg in data set [2] (setting [5]) came to 96%. Moreover, the LD50 at 336 h in data set [3] came out at 1200 mg/kg. Moreover, the Kb on Histamine H2-Receptor is 186 nM.

Regarding `Nc1cc(NC/C=C\COc2cccc(CN3CCCCC3)c2)nc(=O)[nH]1` [Ex. 13, 4-amino-6-[4-<3-(1-piperidinomethyl)phenoxy>-cis-2-butenylamino]-(1H)-pyrimidin-2-one], the ED50 in data set [1] (setting [4]) is 0.52 mg/kg. Moreover, the “Efficacy Ratio relative to Cimetidine” value in data set [1] (intraduodenal, rat) is reported as 13.8. Also, the inhibition in vivo at 0.5 mg/kg in data set [2] (setting [5]) turned out to be 91%. For the same compound, in data set [3], the LD50 at 336 h is greater than 1500 mg/kg. In addition, at Histamine H2-Receptor, the Kb is 83.2 nM.

For the compound `Nc1c(NC/C=C\COc2cccc(CN3CCCCC3)c2)c(=O)c1=O` [Ex. 2, 1-amino-2-[4-<3-(1-piperidinomethyl)phenoxy>-cis-2-butenylamino]-1-cyclobuten-3,4-dione], the ED50 in data set [1] (setting [4]) came out at 0.046 mg/kg. In data set [1] (intraduodenal, rat), the “Efficacy Ratio relative to Cimetidine” value was found to be 156.5 and the “ED50 value: times as effective as Cimetidine (activity ratio)” value (“ED50 value: times … (activity ratio)” below) is recorded as “about 157 times”. Besides, the inhibition in vivo at 0.5 mg/kg in data set [2] (setting [5]) amounted to 98%. For the same compound, in data set [3], the LD50 at 336 h was greater than 1500 mg/kg. Moreover, the Kb at Histamine H2-Receptor was 63.1 nM.

Take `Nc1c(NC/C=C\COc2cccc(CN3CCCC3)c2)c(=O)c1=O` [Ex. 8, 1-amino-2-[4-<3-(1-pyrrolidinomethyl)phenoxy>-cis-2-butenylamino]-1-cyclobuten-3,4-dione]: the ED50 in data set [1] (setting [4]) turned out to be 0.07 mg/kg. Further, the “Efficacy Ratio relative to Cimetidine” value in data set [1] (intraduodenal, rat) is 10.3. Also, the inhibition in vivo at 0.2 mg/kg in data set [2] (setting [6]) came out at 88%. Besides, the Kb at Histamine H2-Receptor is 151 nM.

For `CNc1c(NC/C=C\COc2cccc(CN3CCCCC3)c2)c(=O)c1=O` [Ex. 3, 1-methylamino-2-[4-<3-(1-piperidinomethyl)phenoxy>-cis-2-butenylamino]-cyclobuten-3,4-dione], in data set [1] (setting [4]), the ED50 was determined as 0.036 mg/kg. Besides, in data set [1] (intraduodenal, rat), the “Efficacy Ratio relative to Cimetidine” value was 200.0 and the “ED50 value: times … (activity ratio)” value is on record as roughly 200 times. For the same compound, the inhibition in vivo at 0.5 mg/kg in data set [2] (setting [5]) was determined as 79%. Besides, the LD50 at 336 h in data set [3] was greater than 1500 mg/kg. Moreover, on Histamine H2-Receptor, the Kb was 309 nM.

Regarding `Nc1nnc(NC/C=C\COc2cccc(CN3CCCCC3)c2)s1` [Ex. 27, 2-amino-5-[4-<3-(1-piperidinomethyl)-phenoxy>-cis-2-butenylamino]-1,3,4-thiadiazole], the ED50 in data set [1] (setting [4]) stood at 0.45 mg/kg. Moreover, the “Efficacy Ratio relative to Cimetidine” value in data set [1] (intraduodenal, rat) is recorded as 16.0. In addition, the inhibition in vivo at 0.2 mg/kg in data set [2] (setting [6]) is 87%. The Kb at Histamine H2-Receptor was 490 nM.

Take `CN/C(=N/CCSCc1nc[nH]c1C)NC#N` [Cimetidine, reference compound]: the ED50 in data set [1] (Rattus norvegicus) stood at 7.2 mg/kg. Moreover, in data set [2] (sc), the inhibition in vivo at 0.5 mg/kg stood at 41%. Besides, the LD50 at 336 h in data set [3] was 3300 mg/kg.

On to `CNc1nnc(NC/C=C\COc2cccc(CN3CCCCC3)c2)s1` [Ex. 28, 2-methylamino-5-[4-<3-(1-piperidinomethyl)-phenoxy>-cis-2-butenylamino]-1,3,4-thiadiazole], for which the ED50 in data set [1] (setting [4]) is 0.62 mg/kg. In addition, the “Efficacy Ratio relative to Cimetidine” value in data set [1] (intraduodenal, rat) was determined as 11.6. Also, the inhibition in vivo at 0.2 mg/kg in data set [2] (setting [6]) turned out to be 75%. Further, the Kb on Histamine H2-Receptor is 4680 nM.

Consider `CC1CCCN(Cc2cccc(OC/C=C\CNc3c(N)c(=O)c3=O)c2)C1` (stereo not drawn) [Ex. 34, 1-amino-2-[4-{3-<1-(3-methylpiperidino)methyl>phenoxy}-cis-2-butenylamino]-1-cyclobutene-3,4-dione], for which the ED50 in data set [1] (setting [4]) was found to be 0.17 mg/kg. Moreover, in data set [1] (intraduodenal, rat), the “Efficacy Ratio relative to Cimetidine” value is reported as 42.1. Also, the inhibition in vivo at 0.2 mg/kg in data set [2] (setting [6]) was found to be 100%. In addition, the Kb at Histamine H2-Receptor is 70.8 nM.

`CN(C)Cc1cccc(OC/C=C\CNc2n[s+]([O-])nc2N)c1` (stereo not drawn) [Ex. 21, 3-<4-(3-dimethylaminomethylphenoxy)-cis-2-butenylamino>-4-amino-1,2,5-thiadiazole-1-oxide]: the ED50 in data set [1] (setting [4]) is 2 mg/kg. Further, in data set [1] (intraduodenal, rat), the “Efficacy Ratio relative to Cimetidine” value is given as 3.6. Also, the inhibition in vivo at 0.2 mg/kg in data set [2] (setting [6]) was found to be 99%. On Histamine H2-Receptor, the Kb is 229 nM.

`O=c1c(NC/C=C\COc2cccc(CN3CCCCC3)c2)c(NCc2cccnc2)c1=O` [Ex. 37, 1-(3-pyridylmethylamino)-2-[4-<3-(1-piperidinomethyl)phenoxy>-cis-2-butenylamino]-1-cyclobutene-3,4-dione]: in data set [1] (setting [4]), the ED50 worked out at 0.074 mg/kg. Also, in data set [1] (intraduodenal, rat), the “Efficacy Ratio relative to Cimetidine” value is recorded as 97.3. For the same compound, in data set [2] (setting [6]), the inhibition in vivo at 0.2 mg/kg is 90%. The Kb at Histamine H2-Receptor is 646 nM.

Consider `CNc1n[s+]([O-])nc1NC/C=C\COc1cccc(CN2CCCCC2)c1` (stereo not drawn) [Ex. 16, 3-methylamino-4-[4-<3-(1-piperidinomethyl)phenoxy>-cis-2-butenylamino]-1,2,5-thiadiazole-1-oxide], for which, in data set [1] (setting [4]), the ED50 is 0.04 mg/kg. In data set [1] (intraduodenal, rat), the “Efficacy Ratio relative to Cimetidine” value is reported as 180.0 and the “ED50 value: times … (activity ratio)” value was roughly 180 times. Moreover, the inhibition in vivo at 0.5 mg/kg in data set [2] (setting [5]) amounted to 98%. Besides, the LD50 at 336 h in data set [3] was greater than 1500 mg/kg. Moreover, the Kb at Histamine H2-Receptor was 2400 nM.
